This passage reports IC50 results from US10906915B2, “Substituted pyrazoloazepin-4-ones and their use as phosphodiesterase inhibitors” (LEO Pharma A/S, priority 2016, dated 2021).

pIC50: −log10 of the molar value. Some results are limits rather than exact numbers.

Sequence of human PDE4D catalytic domain (Q08499 380-740 limits assumed): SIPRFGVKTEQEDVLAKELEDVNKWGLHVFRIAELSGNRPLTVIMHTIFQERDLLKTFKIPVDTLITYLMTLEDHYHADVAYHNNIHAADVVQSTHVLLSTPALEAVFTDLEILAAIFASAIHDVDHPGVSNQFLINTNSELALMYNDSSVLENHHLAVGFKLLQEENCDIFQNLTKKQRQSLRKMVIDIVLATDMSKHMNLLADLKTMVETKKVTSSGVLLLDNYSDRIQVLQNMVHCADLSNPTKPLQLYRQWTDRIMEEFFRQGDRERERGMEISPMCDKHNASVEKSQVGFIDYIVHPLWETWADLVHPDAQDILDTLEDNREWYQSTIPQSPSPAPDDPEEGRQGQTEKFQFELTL

For the assay, the target named is human PDE4D catalytic domain (UniProt no. Q08499) (Homo sapiens (Human), UniProt Q08499). In words: PDE4 assay (TR-FRET, FAM-cAMP cleavage). It is filed as biochemical. The following applies: human PDE4D catalytic domain; molar concentration giving 50% inhibition of substrate cleavage; read-out: PDE4 IC50 range. On the procedure:
The human PDE4D catalytic domain (UniProt no. Q08499 [[…]]) was incubated with a mixture of non-labelled cAMP (cyclic adenosine monophosphate) and fluorescein amidite (FAM) conjugated cAMP and titrated test or reference compound. Following brief incubation the enzymatic reaction was stopped by addition of binding buffer containing nanoparticles with immobilized trivalent metal ions capable of binding 1) AMP phospho groups and 2) terbium (Tb) donor fluorophores. Subsequent excitation of the Tb donor triggers time-resolved FRET to adjacent FAM acceptor molecules resulting in light emission. In the presence of a PDE4 inhibitor, AMP generation was reduced resulting in a lower fluorescence signal. The cAMP phosphodiester is not bound by the detection system.
The results were calculated as the molar concentrations resulting in 50% inhibition of the substrate cleavage compared to controls samples, and are expressed as a range of IC50 (nM).
Take `CCc1nn(CCCOC(=O)C2CC(F)(F)C2)c2c1C(=O)NCC1(CCOCC1)C2` [Example 14, 3-(3-ethyl-4-oxo-spiro[6,8-dihydro-5H-pyrazolo[4,3-c]azepine-7,4’-tetrahydropyran]-1-yl)propyl 3,3-difluorocyclobutane-carboxylate]: the pIC50 (in general, the IC50 on a negative log10 scale, so that one unit is a factor of ten) was 6.30 to 7.00.

For the molecule `CCc1nn(CCCOC(=O)c2cccc(C)c2)c2c1C(=O)NCC1(CCOCC1)C2` [Example 15, 3-(3-ethyl-4-oxo-spiro[6,8-dihydro-5H-pyrazolo[4,3-c]azepine-7,4′-tetrahydropyran]-1-yl)propyl 3-methylbenzoate], the pIC50 was > 7.00.

On to `CCc1nn(CCCOC(=O)c2ccccc2C)c2c1C(=O)NCC1(CCOCC1)C2` [Example 16, 3-(3-ethyl-4-oxo-spiro[6,8-dihydro-5H-pyrazolo[4,3-c]azepine-7,4′-tetrahydropyran]-1-yl)propyl 2-methylbenzoate], for which the pIC50 was > 7.00.

For the molecule `CCc1nn(CCCOC(=O)c2ccccc2O)c2c1C(=O)NCC1(CCOCC1)C2` [Example 17, 3-(3-ethyl-4-oxo-spiro[6,8-dihydro-5H-pyrazolo[4,3-c]azepine-7,4′-tetrahydropyran]-1-yl)propyl 2-hydroxybenzoate], the negative-log IC50 (pIC50) is > 7.00.

On to `CCc1nn(CCCOC(=O)c2cccc(F)c2)c2c1C(=O)NCC1(CCOCC1)C2` [Example 18, 3-(3-ethyl-4-oxo-spiro[6,8-dihydro-5H-pyrazolo[4,3-c]azepine-7,4′-tetrahydropyran]-1-yl)propyl 3-fluorobenzoate], for which the pIC50 is > 7.00.

For `CCc1nn(CCCOC(=O)c2ccccc2F)c2c1C(=O)NCC1(CCOCC1)C2` [Example 19, 3-(3-ethyl-4-oxo-spiro[6,8-dihydro-5H-pyrazolo[4,3-c]azepine-7,4′-tetrahydropyran]-1-yl)propyl 2-fluorobenzoate], the negative-log IC50 (pIC50) was > 7.00.

As to `CCc1nn(CCCOC(=O)c2ccc(F)cc2)c2c1C(=O)NCC1(CCOCC1)C2` [Example 20, 3-(3-ethyl-4-oxo-spiro[6,8-dihydro-5H-pyrazolo[4,3-c]azepine-7,4′-tetrahydropyran]-1-yl)propyl 4-fluorobenzoate], the pIC50 is > 7.00.

For `CCc1nn(CCCOC(=O)[C@H]2CC[C@@H](O)CC2)c2c1C(=O)NCC1(CCOCC1)C2` [Example 21, 3-(3-ethyl-4-oxo-spiro[6,8-dihydro-5H-pyrazolo[4,3-c]azepine-7,4′-tetrahydropyran]-1-yl)propyl cis-4-hydroxycyclohexane-carboxylate], the negative-log IC50 (pIC50) was 6.30 to 7.00.

With `CCc1nn(CCCOC(=O)[C@H]2CC[C@H](O)CC2)c2c1C(=O)NCC1(CCOCC1)C2` [Example 22, 3-(3-ethyl-4-oxo-spiro[6,8-dihydro-5H-pyrazolo[4,3-c]azepine-7,4′-tetrahydropyran]-1-yl)propyl trans-4-hydroxycyclohexane-carboxylate], the negative logarithm of the IC50 (pIC50) is 6.30 to 7.00.

`CCc1nn(CCCOC(=O)c2cccc(C#N)c2)c2c1C(=O)NCC1(CCOCC1)C2` [Example 23, 3-(3-ethyl-4-oxo-spiro[6,8-dihydro-5H-pyrazolo[4,3-c]azepine-7,4′-tetrahydropyran]-1-yl)propyl 3-cyanobenzoate]: the pIC50 was > 7.00.

For the molecule `CCc1nn(CCCOC(=O)c2ccc(C#N)cc2)c2c1C(=O)NCC1(CCOCC1)C2` [Example 24, 3-(3-ethyl-4-oxo-spiro[6,8-dihydro-5H-pyrazolo[4,3-c]azepine-7,4′-tetrahydropyran]-1-yl)propyl 4-cyanobenzoate], the pIC50 was > 7.00.

As to `CCc1nn(CCCOC(=O)c2ccccc2C#N)c2c1C(=O)NCC1(CCOCC1)C2` [Example 25, 3-(3-ethyl-4-oxo-spiro[6,8-dihydro-5H-pyrazolo[4,3-c]azepine-7,4′-tetrahydropyran]-1-yl)propyl 2-cyanobenzoate], the pIC50 is > 7.00.

Take `CCc1nn(CCCOC(=O)c2ccc(C)c(C)c2)c2c1C(=O)NCC1(CCOCC1)C2` [Example 26, 3-(3-ethyl-4-oxo-spiro[6,8-dihydro-5H-pyrazolo[4,3-c]azepine-7,4′-tetrahydropyran]-1-yl)propyl 3,4-dimethylbenzoate]: the negative-log IC50 (pIC50) is > 7.00.

For the molecule `CCc1nn(CCCOC(=O)c2ccc(C)cc2C)c2c1C(=O)NCC1(CCOCC1)C2` [Example 27, 3-(3-ethyl-4-oxo-spiro[6,8-dihydro-5H-pyrazolo[4,3-c]azepine-7,4′-tetrahydropyran]-1-yl)propyl 2,4-dimethylbenzoate], the negative logarithm of the IC50 (pIC50) is > 7.00.

In the case of `CCc1nn(CCCOC(=O)c2ccc(OC)cc2)c2c1C(=O)NCC1(CCOCC1)C2` [Example 28, 3-(3-ethyl-4-oxo-spiro[6,8-dihydro-5H-pyrazolo[4,3-c]azepine-7,4′-tetrahydropyran]-1-yl)propyl 4-methoxybenzoate], the negative logarithm of the IC50 (pIC50) was > 7.00.

Take `CCc1nn(CCCOC(=O)c2cccc(OC)c2)c2c1C(=O)NCC1(CCOCC1)C2` [Example 29, 3-(3-ethyl-4-oxo-spiro[6,8-dihydro-5H-pyrazolo[4,3-c]azepine-7,4′-tetrahydropyran]-1-yl)propyl 3-methoxybenzoate]: the pIC50 is > 7.00.

For `CCc1nn(CCCOC(=O)c2ccccc2OC)c2c1C(=O)NCC1(CCOCC1)C2` [Example 30, 3-(3-ethyl-4-oxo-spiro[6,8-dihydro-5H-pyrazolo[4,3-c]azepine-7,4′-tetrahydropyran]-1-yl)propyl 2-methoxybenzoate], the pIC50 is > 7.00.

Regarding `CCc1nn(CCCOC(=O)CCS(C)(=O)=O)c2c1C(=O)NCC1(CCOCC1)C2` [Example 31, 3-(3-ethyl-4-oxo-spiro[6,8-dihydro-5H-pyrazolo[4,3-c]azepine-7,4′-tetrahydropyran]-1-yl)propyl 3-methylsulfonylpropanoate], the pIC50 was < 6.30.

`CCc1nn(CCCOC(=O)c2ccc(C)c(F)c2)c2c1C(=O)NCC1(CCOCC1)C2` [Example 32, 3-(3-ethyl-4-oxo-spiro[6,8-dihydro-5H-pyrazolo[4,3-c]azepine-7,4′-tetrahydropyran]-1-yl)propyl 3-fluoro-4-methyl-benzoate]: the pIC50 was > 7.00.

For the molecule `CCc1nn(CCCOC(=O)c2ccc(C)cc2F)c2c1C(=O)NCC1(CCOCC1)C2` [Example 33, 3-(3-ethyl-4-oxo-spiro[6,8-dihydro-5H-pyrazolo[4,3-c]azepine-7,4′-tetrahydropyran]-1-yl)propyl 2-fluoro-4-methyl-benzoate], the negative-log IC50 (pIC50) is > 7.00.

For `CCc1nn(CCCOC(=O)c2cc(F)ccc2C)c2c1C(=O)NCC1(CCOCC1)C2` [Example 34, 3-(3-ethyl-4-oxo-spiro[6,8-dihydro-5H-pyrazolo[4,3-c]azepine-7,4′-tetrahydropyran]-1-yl)propyl 5-fluoro-2-methyl-benzoate], the pIC50 is > 7.00.

For `CCc1nn(CCCOC(=O)c2ccc(F)c(C)c2)c2c1C(=O)NCC1(CCOCC1)C2` [Example 35, 3-(3-ethyl-4-oxo-spiro[6,8-dihydro-5H-pyrazolo[4,3-c]azepine-7,4′-tetrahydropyran]-1-yl)propyl 4-fluoro-3-methyl-benzoate], the pIC50 was > 7.00.

Consider `CCc1nn(CCCOC(=O)c2cccc(F)c2C)c2c1C(=O)NCC1(CCOCC1)C2` [Example 36, 3-(3-ethyl-4-oxo-spiro[6,8-dihydro-5H-pyrazolo[4,3-c]azepine-7,4′-tetrahydropyran]-1-yl)propyl 3-fluoro-2-methyl-benzoate], for which the negative logarithm of the IC50 (pIC50) was > 7.00.

Take `CCc1nn(CCCOC(=O)c2cc(C)ccc2F)c2c1C(=O)NCC1(CCOCC1)C2` [Example 37, 3-(3-ethyl-4-oxo-spiro[6,8-dihydro-5H-pyrazolo[4,3-c]azepine-7,4′-tetrahydropyran]-1-yl)propyl 2-fluoro-5-methyl-benzoate]: the negative logarithm of the IC50 (pIC50) is > 7.00.

Take `CCc1nn(CCCOC(=O)c2ccc(F)cc2C)c2c1C(=O)NCC1(CCOCC1)C2` [Example 38, 3-(3-ethyl-4-oxo-spiro[6,8-dihydro-5H-pyrazolo[4,3-c]azepine-7,4′-tetrahydropyran]-1-yl)propyl 4-fluoro-2-methyl-benzoate]: the pIC50 is > 7.00.

In the case of `CCc1nn(CCCOC(=O)c2c(C)cccc2F)c2c1C(=O)NCC1(CCOCC1)C2` [Example 39, 3-(3-ethyl-4-oxo-spiro[6,8-dihydro-5H-pyrazolo[4,3-c]azepine-7,4′-tetrahydropyran]-1-yl)propyl 2-fluoro-6-methyl-benzoate], the negative logarithm of the IC50 (pIC50) is > 7.00.

Turning to `CCc1nn(CCCOC(=O)c2ccccc2Cl)c2c1C(=O)NCC1(CCOCC1)C2` [Example 40, 3-(3-ethyl-4-oxo-spiro[6,8-dihydro-5H-pyrazolo[4,3-c]azepine-7,4′-tetrahydropyran]-1-yl)propyl 2-chlorobenzoate], the pIC50 is > 7.00.

Take `CCc1nn(CCCOC(=O)c2cccc(Cl)c2)c2c1C(=O)NCC1(CCOCC1)C2` [Example 41, 3-(3-ethyl-4-oxo-spiro[6,8-dihydro-5H-pyrazolo[4,3-c]azepine-7,4′-tetrahydropyran]-1-yl)propyl 3-chlorobenzoate]: the pIC50 was > 7.00.

In the case of `CCc1nn(CCCOC(=O)c2ccc(Cl)cc2)c2c1C(=O)NCC1(CCOCC1)C2` [Example 42, 3-(3-ethyl-4-oxo-spiro[6,8-dihydro-5H-pyrazolo[4,3-c]azepine-7,4′-tetrahydropyran]-1-yl)propyl 4-chlorobenzoate], the pIC50 was > 7.00.

Turning to `CCc1nn(CCCOC(=O)c2cc(F)cc(F)c2)c2c1C(=O)NCC1(CCOCC1)C2` [Example 43, 3-(3-ethyl-4-oxo-spiro[6,8-dihydro-5H-pyrazolo[4,3-c]azepine-7,4′-tetrahydropyran]-1-yl)propyl 3,5-difluorobenzoate], the pIC50 was > 7.00.
